Test results as given in patent US6716574B2, “Osp-C derived peptide fragments” (Dako A/S, priority 1996, dated 2004).

What was measured:
Assay type in all cases: binding, human
[1] = system: IgM antibodies to OspC in sera from patients; assay: Indirect streptavidin ELISA for IgM antibodies against carboxy-terminal OspC deca-peptide (peptide ELISA)
Method: Indirect Streptavidin ELISA for IgM Antibodies against Carboxy-terminal OspC Deca-peptide (Peptide ELISA)
Flat-bottom microdilution plates (Maxisorb; Nunc, Roskilde, Denmark) were coated with 100 μl of streptavidin (ZYMED, S. Avidinii) 2.5 μg/ml in citrate buffer (pH 5) and incubated overnight at 4° C. The plates were washed four times a one minute with phosphate buffered saline (PBS) containing 0.5 M NaCl and 0.1% (vol/vol) Tween 20 (pH 7.2), 100 μl of the biotinylated synthetic peptide
(prodiluted in PBS containing 0.37 M NaCl, 0.5% (vol/vol) Tween 20, and 1% (wt/vol) milk powder (pH 7.0)) was added to the wells and the plates were incubated overnight at 4° C. The plates were washed four times a one minute with PBS containing 0.5 M NaCl and 0.1% (vol/vol) Tween 20 (pH 7.2), and 100 μl of test serum diluted 1:200 in PBS containing 0.7 M NaCl, 0.1% (vol/vol) Tween 20, and 1% (wt/vol) milkpowder (pH 7, 2) was added to the wells and incubated for 2 hours at 20° C. on a rocker platform. The plates were washed four times à one minute with PBS containing 0.5 M NaCl and 0.1% (vol/vol) Tween 20 (pH 7.2), and 100 μl of peroxidase conjugated rabbit anti-human IgM (code P215; Dako-patts, Copenhagen, Denmark) diluted 1:1000 in PBS containing 0.5% Tween 20 and 1% milkpowder (pH 7.4) was added to the wells and incubated for 1 h at 20° C. The plates were washed four times à one minute with PBS containing 0.5 M NaCl and 0.1% (vol/vol) Tween 20 (pH 7.2), and 200 μl of the substrate o-phenylenediamine (0.33 mg/ml; Kem-En-Tec, Denmark, tablets of 10 mg) in citrate buffer (pH 5) with 0.04% (vol/vol) H2O2 was added to each well. After 15 minutes protected from light, the enzymatic reaction was stopped by the addition of 50 μl of 3 M H2SO4. The optical density (OD) at 492 nm was read spectrophotometrically on an Immuno Reader, Easy reader EAR 400 AC, SLT Labinstruments, AUSTRIA. Samples were tested in duplicate and retested if the two OD values differed more than 10% from the mean. To eliminate plate-to-plate and day-to-day variations, a reference serum pool based on seven western blot positive sera were included on every plate for construction of a standard dilution curve with a two fold dilution ranging from 1:200 to 1:6400. The OD value of every sample was adjusted to this standard curve. Positive and negative control sera were included on every plate. The positive control sera were diluted 1:200, 1:400 and 1:800 on every plate to check for parallelism between the standard reference curve and the dilution curve of the positive control sera. […]

[2] = system: IgG antibodies in Lyme borreliosis sera; assay: IgG antibodies to the C-terminal decapeptide in Lyme borreliosis sera
[3] = system: IgM in serum from a patient with established neuroborreliosis; assay: Western blot with the decapeptide as serodiagnostic test antigen; conditions: 10 ug peptide on nitrocellulose, NB serum 1:100, preliminary experiments
Method: After three further washes in TRIS buffered saline with Tween, antibody reactive peptide was detected with alkaline phosphatase-coupled rabbit anti-human immune globulin M (DAKO, Denmark; cat. no. 337). The conjugate was diluted 1:1000 in TRIS buffered saline with 1% BSA and the NC membrane was incubated with colour substrate (BCIP and NBT; 1:500) for 10 minutes.

[4] = system: IgG reactive with OspC in patient sera; assay: IgG rOspC ELISA combined with IgG flagellum ELISA
[5] = system: IgM antibodies to OspC in sera from patients; assay: Indirect ELISA for IgM antibodies to full-length and truncated recombinant OspC (rOspC ELISA); conditions: for frequency (%) of positive sera, rOspCfl ELISA: IgM; for diagnostic sensitivity for IgM: set of preliminary tests
Method: Indirect ELISA for IgM Antibodies to Full-length and Truncated Recombinant OspC (rOspC ELISA)
Flat-bottom microdilution plates (Maxisorb; Nunc, Roskilde, Denmark) were coated with 100 μl of rOspC diluted in 0.05 M bicarbonate pH 9.6 for 1 hour at 20° C. on a rocker platform and thereafter overnight at 4° C. The optimum coating concentration was defined as the antigen dilution resulting in the highest ratio of the optical density (OD) between a positive and a negative control serum (P/N ratio). The plates were washed four times à one minute with PBS containing 0.5 M NaCL, and 0.1% (vol/vol) Tween 20 (pH 7.2) and unspecific protein binding was blocked with 100 μl 3% (wt/vol) milk powder in PBS for 1 hour. The plates were washed four times à one minute with PBS containing 0.5 M NaCL, and 0.1% (vol/vol) Tween 20 (pH 7.2). 100 μl of serum diluted 1:200 in PBS containing 0.1% (vol/vol) Tween 20, 0.02% NaN3 and 1% (wt/vol) milk powder was added to the wells and incubated for 2 h at 20° C. The plates were washed four times à one minute with PBS containing 0.5 M NaCL, and 0.1% (vol/vol) Tween 20 (pH 7.2) and 100 μl peroxidase conjugated rabbit anti-human immunoglobulin M (IgM) (Dakopats, Copenhagen, Denmark, code P-215) diluted 1:1000 in PBS pH 7.4 with 0.05% (vol/vol) Tween 20 and 1% (wt/vol) milk powder. After the incubation for 1 h at 20° C. the plates were washed four times à one minute with PBS containing 0.5 M NaCL, and 0.1% (vol/vol) Tween 20 (pH 7.2) and 200 μl of the substrate o-phenylenediamine (0.41 mg/ml; Sigma) in citrate buffer (pH 5) with 0.04% (vol/vol) H2O2) was added to each well. After 15 minutes protected from light, the enzymatic reaction was stopped by the addition of 50 μl of 3M H2SO4. The optical density (OD) at 492 nm was read spectrophotometrically (Immuno Reader, Easy reader EAR 400 AC—SLT Labinstruments, AUSTRIA). Samples were tested in duplicate and retested, if the two OD values differed more than 10% from the mean. To eliminate plate-to-plate and day-to-day variations, a reference serum pool based on seven western blot positive sera were included on every plate for construction of a standard dilution curve with a two fold dilution ranging from 1:200 to 1:6400. The OD value of every sample was adjusted to this standard curve. Positive and negative control sera were included on every plate. The positive control sera were diluted 1:200, 1:400 and 1:800 on every plate to check for parallelism between the standard reference curve and the dilution curve of the positive control sera.
The diagnostic cutoff OD was adjusted to be 98% specific for an IgM assay on the basis of serum samples from 100 healthy danish blood donors, and was 0.230 for the IgM assay.
In a preliminary setup, rOspCt was used in the above-described rOspC ELISA. Sera from 47 patients with EM, 50 with NB, 30 with ACA and 29 with syphilis were tested against rOspCt.
The capability of an immunological agent according to the present invention to react with sera from patients in various stages of Lyme borreliosis was evaluated against that of recombinant OspC derived from B. garinii and against conventional flagellum ELISAs (performed as described in Hansen K. et al. (1991) and Hansen K. et al. (1988)). These flagellum assays (testing for IgM and IgG antibodies to native B. burgdorferi flagellum) are commercially available, a μ-capture ELISA (DAKO, Denmark code K006), and an indirect IgG ELISA (DAKO, Denmark code K416). Both assays use flagella purified from strain DK1 belonging to the genospecies of B. afzelii. The ELISAs were performed according to the instructions of the manufacturer, and the results were expressed as optical density (OD) values. In both assays the diagnostic cut-off level was adjusted to a specificity of 98% based on the examination of 100 blood donors.

With “6-aminohexanoic acid-Pro-Val-Val-Ala-Glu-Ser-Pro-Lys-Lys-Pro [Peptide]” the “OD titer compared with the rOspCfl ELISA” value ([1]; EM and NB sera, IgM, FIGS. 1-4) was “significantly higher”, the “frequency (%) of positive sera, Peptide ELISA” value (shortened to “frequency (%) … Peptide ELISA”) ([1]; EM sera (n = 80), IgM, cutoff OD 0.460) was “n = 26 (32.5%)” and the “Peptide IgM negative and Flagellum IgM negative” value ([1]; EM, n = 80) was “n = 44 (55.00%)”. The “Peptide IgM negative and Flagellum IgM positive” value ([1]; EM, n = 80) was “n = 10 (12.50)”, the “Peptide IgM positive and Flagellum IgM negative” value ([1]; EM, n = 80) was “n = 6 (7.50%)” and the “Peptide IgM positive and Flagellum IgM positive” value ([1]; EM, n = 80) was “n = 20 (25.00%)”. For the same molecule, the “Peptide IgM negative” value ([1]; EM, n = 80, all sera) was “n = 54 (67.5%)”, the “Peptide IgM positive” value ([1]; EM, n = 80, all sera) was “n = 26 (32.5%)” and the “frequency (%) … Peptide ELISA” value ([1]; Early Lyme borreliosis (EM and NB) sera (n = 181), IgM) was “n = 72 (39.8%)”. The “frequency (%) … Peptide ELISA” value ([1]; NB sera (n = 101), IgM) was “n = 46 (45.5%)”, the “Decapeptide IgM negative and Flagellum IgM negative” value ([1]; NB, n = 101) was “n = 25 (24.75%)” and the “Decapeptide IgM negative and Flagellum IgM positive” value ([1]; NB, n = 101) was “n = 30 (29.70%)”. The “Decapeptide IgM positive and Flagellum IgM negative” value ([1]; NB, n = 101) was “n = 12 (11.88%)”, the “Decapeptide IgM positive and Flagellum IgM positive” value ([1]; NB, n = 101) was “n = 33 (32.67%)” and the “Decapeptide IgM negative” value ([1]; NB, n = 101, all sera) was “n = 55 (54.5%)”. The “Decapeptide IgM positive” value ([1]; NB, n = 101, all sera) was “n = 46 (45.5%)”, the “sensitivity of the peptide ELISA relative to the rOspCfl ELISA” value ([1]; detecting early Lyme borreliosis (stage 1 and 2)) was “approximately 86%” and the “increase of overall sensitivity for IgM when adding peptide ELISA results to flagellum ELISA results” value ([1]; first stage (EM)) was 7.5%. For the same molecule, the “accuracy (ROC plot) compared with the rOspCfl ELISA” value ([1]; patients suffering from NB, FIG. 6) was “more accurate” and the “increase of overall sensitivity for IgM when adding peptide ELISA results to flagellum ELISA results” value ([1]; second stage (NB)) was 12%.

For “NH2-Pro-Val-Val-Ala-Glu-Ser-Pro-Lys-Lys-Pro-COOH (H-PVVAESPKKP-OH; listed as Borrelia garinii) [SEQ ID NO: 1, C-terminal decapeptide of B. burgdorferi sensu lato OspC]”, the “Lyme borreliosis sera comprising IgG antibodies to the peptide” value [2] was “only few” and the “usability as serodiagnostic test antigen in western blot” value [3] was “can be used as a serodiagnostic test antigen”.

B1: rOspCfl: full-length recombinant OspC from Borrelia garinii strain DK6 (SEQ ID NO: 3), six-His fusion protein (protein, listed as Borrelia garinii)
chain: MKKNTLSAILMTLFLFISCNNSGGDSASTNPDESAKGPNLTVISKKITDSNAFLLAVKEVEALLSSIDELSKAIGKKIKNDGTLDNEANRNESLIAGAYEISKLITQKLSVLNSEELKEKIKEAKDCSEKFTTKLKDSHAELGIQSVQDDNAKKAILKTHGTKDKGAKELEELFKSLESLSKAAQAALTNSVKELTNPVVAESPKKP
modifications: six-His tag
B1 was tested, and the “improvement on adding IgG rOspC ELISA results to IgG flagellum ELISA results” value [4] was “no significant improvement”, the “frequency (%) of positive sera, rOspCfl ELISA” value (shortened to “frequency (%) … rOspCfl ELISA”) ([5]; EM sera (n = 80), B. garinii rOspCfl, cutoff OD 0.230) was “n = 45 (43.8%)” and the “rOspCfl IgM negative and Flagellum IgM negative” value ([5]; EM, n = 80) was “n = 38 (47.50%)”. For the same molecule, the “rOspCfl IgM negative and Flagellum IgM positive” value ([5]; EM, n = 80) was “n = 7 (8.75%)”, the “rOspCfl IgM positive and Flagellum IgM negative” value ([5]; EM, n = 80) was “n = 12 (15.00%)” and the “rOspCfl IgM positive and Flagellum IgM positive” value ([5]; EM, n = 80) was “n = 23 (28.75%)”. The “rOspCfl IgM negative” value ([5]; EM, n = 80, all sera) was “n = 45 (56.25%)”, the “rOspCfl IgM positive” value ([5]; EM, n = 80, all sera) was “n = 35 (43.75%)” and the “frequency (%) … rOspCfl ELISA” value ([5]; Early Lyme borreliosis (EM and NB) sera (n = 181)) was “n = 94 (46.4%)”. The “frequency (%) … rOspCfl ELISA” value ([5]; NB sera (n = 101), B. garinii rOspCfl) was “n = 49 (48.5%)”, the “rOspCfl IgM negative and Flagellum IgM negative” value ([5]; NB, n = 101) was “n = 25 (24.75%)” and the “rOspCfl IgM negative and Flagellum IgM positive” value ([5]; NB, n = 101) was “n = 26 (25.74%)”. For the same molecule, the “rOspCfl IgM positive and Flagellum IgM negative” value ([5]; NB, n = 101) was “n = 12 (11.88%)”, the “rOspCfl IgM positive and Flagellum IgM positive” value ([5]; NB, n = 101) was “n = 37 (36.63%)” and the “rOspCfl IgM negative” value ([5]; NB, n = 101, all sera) was “n = 52 (51.5%)”. The “rOspCfl IgM positive” value ([5]; NB, n = 101, all sera) was “n = 49 (48.5%)”, the “increase of overall diagnostic sensitivity for IgM when adding rOspCfl ELISA results to flagellum ELISA results” value ([5]; first stage of Lyme borreliosis (EM)) was 15% and the “diagnostic sensitivity for IgM” value ([5]; first stage of Lyme borreliosis) was 44%. For the same molecule, the “increase of overall diagnostic sensitivity for IgM when adding rOspCfl ELISA results to flagellum ELISA results” value ([5]; second stage of Lyme borreliosis (NB)) was 12% and the “diagnostic sensitivity for IgM” value ([5]; second stage of Lyme borreliosis) was 48%.
